Data published in US8293705B2, “HCV protease inhibitors and uses thereof” (Avila Therapeutics, Inc., priority 2007, dated 2012).

What was measured:
[1] = biological target: T1, HCV NS3/4A 1b protease D168A (Hepatitis C virus genotype 1b, UniProt Q9WMX2, D1194A); test: HCV protease FRET assay (IC50_APP), Example 16; format: biochemical
T1 construct: 10× stocks of NS3/4A protease enzyme from Bioenza (Mountain View, Calif.); purchased Bioenza (Mountain View, Calif.)
Method: (§1) The following protocol was used to generate “apparent” IC50 (IC50 APP) values as depicted in Table 6, below. […] 5 μL of each enzyme were added to Corning (#3575) 384-well, black, microtiter plates (Corning, N.Y.) after spotting a 0.5 μL volume of 50% DMSO and serially diluted compounds prepared in 50% DMSO. Protease reactions were immediately started after enzyme addition with the addition of 45 μL of the FRET substrate and monitored for 60-90 minutes at λex485/λem520 in a Synergy^4 plate reader from BioTek (Winooski, Vt.). At the conclusion of each assay, progress curves from each well were examined for linear reaction kinetics and fit statistics (R^2, 95% confidence intervals, absolute sum of squares).
(§2) The compound numbers correspond to the compound numbers in Table 3. […] ;

[2] = biological target: T2, HCV NS3/4A 1b protease A156T (Hepatitis C virus genotype 1b, UniProt Q9WMX2, A1182T); test: HCV protease FRET assay (IC50_APP), Example 16; format: biochemical
T2 construct: 10× stocks of NS3/4A protease enzyme from Bioenza (Mountain View, Calif.); purchased Bioenza (Mountain View, Calif.)
Method: as §1, §2

[3] = biological target: T3, HCV NS3/4A 1b protease wild type (Hepatitis C virus genotype 1b, UniProt Q9WMX2); test: HCV protease FRET assay (IC50_APP), Example 16; format: biochemical
T3 construct: 10× stocks of NS3/4A protease enzyme from Bioenza (Mountain View, Calif.); purchased Bioenza (Mountain View, Calif.)
Method: as §1, §2

HCV NS3/4A wild type = biological target: T4, HCV NS3/4A wild type (Hepatitis C virus genotype 1b, UniProt Q9WMX2); test: Mass spectrometric analysis of covalent modification (MALDI-TOF); format: binding; settings: 10× excess of test compound to protein; for Covalent modification of HCV NS3/4A wild type: MALDI-TOF
T4 construct: HCV NS3/4A wild type (wt) was incubated for 1 hr at a 10× fold access of test compound to protein; purchased Bioenza, Calif
Method: Mass spectrometric analysis of HCV wild type or HCV variant C159S in the presence of test compound is performed. 100 pmols of HCV wild type (Bioenza, Calif.) is incubated with test compound for 1 hr and 3 hrs at 10-fold access of test compound to protein. 1 ul aliquots of the samples (total volume of 4.24 ul) are diluted with 10 ul of 0.1% TFA prior to micro C4 ZipTipping directly onto the MALDI target using Sinapinic acid as the desorption matrix (10 mg/mL in 0.1% TFA:Acetonitrile 50:50). Analyses are performed on a Shimadzu Biotech Axima TOF2 (Shimadzu Instruments) matrix-assisted-laser desorption/ionization Time-of-Flight (MALDI-TOF) mass spectrometer. The same procedure is carried out on 100 pmols of HCV C159S mutant of HCV protease for 3 hrs at 10-fold excess of test compound to protein.
As depicted in FIGS. 1 and 2, mass spectrometric analysis of HCV wild type in the presence of test compounds I-1 and I-25 was performed using the following protocol: HCV NS3/4A wild type (wt) was incubated for 1 hr at a 10× fold access of test compound to protein. 2 ul aliquots of the samples were diluted with 10 ul of 0.1% TFA prior to micro C4 ZipTipping directly onto the MALDI target using Sinapinic acid as the desorption matrix (10 mg/ml in 0.1% TFA:Acetonitrile 50:50). For intact protein mass measurement the instrument was set in linear mode using a pulsed extraction setting of 24,500 and apomyoglobin as the standard to calibrate the instrument.

[4] = system: HCV RNA replicon in cell line ET (luc-ubi-neo/ET), human Huh7 hepatoma; test: HCV RNA replicon assay, Example 14 Method A; format: cell-based; settings: Hepatitis C virus, Huh-7, assay of Example 14, 72 hr; for IC50: read-out: Inhibition, Replicon (IC50); for IC90: read-out: Inhibition, Replicon, IC90 value
Method: The compounds were assayed to evaluate the antiviral activity and cytotoxicity of compounds in vitro using HCV RNA replicons. This assay used the cell line ET (luc-ubi-neo/ET), which is a human Huh7 hepatoma cell line that contains an HCV RNA replicon with a stable luciferase (Luc) reporter and three cell culture-adaptive mutations. […]
The ET cell line was grown in Dulbecco's modified essential media (DMEM), 10% fetal bovine serum (FBS), 1% penicillin-streptomycin (pen-strep), 1% glutamine, 250 μg/mL G418 in a 5% CO2 incubator at 37° C. All cell culture reagents were obtained from Mediatech (Manassas, Va.). Cells were trypsinized (1% trypsin:EDTA) and plated out at 5×10^3 cells/well in white 96-well assay plates (Costar) dedicated to cell number (cytotoxicity) or antiviral activity assessments. Drugs were added at six 3-fold concentrations each and the assay was run in DMEM, 5% FBS, 1% pen-strep, 1% glutamine. Human interferon alpha-2b (PBL Biolabs, New Brunswick, N.J.) was included in each run as a positive control compound. Cells were processed 72 hr post drug addition when the cells are still subconfluent. Antiviral activity was measured by analyzing replicon-derived luciferase activity using the Steady-Glo Luciferase Assay System (Promega, Madison, Wis.) according to manufacturer's instruction. The number of cells in each well was determined by CytoTox-1 reagent (Promega). Compound profile was derived by calculating applicable EC50 (effective concentration inhibiting virus replication by 50%), EC90 (effective concentration inhibiting virus replication by 90%), IC50 (concentration decreasing cell viability by 50%) and SI50 (selective index: […]) values.

[5] = biological target: T5, HCV NS3/4A 1b protease R155K (Hepatitis C virus genotype 1b, UniProt Q9WMX2, R1181K); test: HCV protease FRET assay (IC50_APP), Example 16; format: biochemical; settings: reaction started immediately after enzyme addition, read-out: Inhibition (apparent IC50, IC50_APP), HCV R155K
T5 construct: 10× stocks of NS3/4A protease enzyme from Bioenza (Mountain View, Calif.); purchased Bioenza (Mountain View, Calif.)
Method: as §1, §2

| SMILES | IC50 [1] | IC50 [2] | IC50 [3] | Covalent modification of HCV NS3/4A wild type (HCV NS3/4A wild type) | IC50 [4] | IC90 [4] | IC50 [5] | Mass increase of new protein species vs protein with no compound (HCV NS3/4A wild type; 1 hr) |
| --- | --- | --- | --- | --- | --- | --- | --- | --- |
| C=C[C@@H]1C[C@]1(NC(=O)[C@@H]1C[C@@H](OC(=O)N2Cc3cccc(F)c3C2)CN1C(=O)[C@H](CNS(=O)(=O)C=C)NC(=O)OC(C)(C)C)C(=O)NS(=O)(=O)C1CC1 [Compound I-2, (3R,5S)-1-((S)-2-(tert-butoxycarbonylamino)-3-(vinylsulfonamido)propanoyl)-5-((1R,2S)-1-(cyclopropylsulfonylcarbamoyl)-2-vinylcyclopropylcarbamoyl)pyrrolidin-3-yl 4-fluoroisoindoline-2-carboxylate] | < 10 nM | < 10 nM | < 10 nM | measurable covalent modification | 10 to 100 nM | 100 to 1000 nM | – | – |
| C=CC(=O)NCC[C@H](NC(=O)OC(C)(C)C)C(=O)N1C[C@H](OC(=O)N2Cc3cccc(F)c3C2)C[C@H]1C(=O)N[C@]1(C(=O)NS(=O)(=O)C2CC2)C[C@H]1C=C [Compound I-5, (3R,5S)-1-((S)-4-acrylamido-2-(tert-butoxycarbonylamino)butanoyl)-5-((1R,2S)-1-(cyclopropylsulfonylcarbamoyl)-2-vinylcyclopropylcarbamoyl)pyrrolidin-3-yl 4-fluoroisoindoline-2-carboxylate] | 100 to 1000 nM | 10 to 100 nM | < 10 nM | measurable covalent modification | 10 to 100 nM | 100 to 1000 nM | – | – |
| C=CC(=O)N(C)CC[C@H](NC(=O)OC(C)(C)C)C(=O)N1C[C@H](OC(=O)N2Cc3cccc(F)c3C2)C[C@H]1C(=O)N[C@]1(C(=O)NS(=O)(=O)C2CC2)C[C@H]1C=C [Compound I-13, (3R,5S)-1-((S)-2-(tert-butoxycarbonylamino)-4-(N-methylacrylamido)butanoyl)-5-((1R,2S)-1-(cyclopropylsulfonylcarbamoyl)-2-vinylcyclopropylcarbamoyl)pyrrolidin-3-yl 4-fluoroisoindoline-2-carboxylate] | 100 to 1000 nM | < 10 nM | < 10 nM | measurable covalent modification | 10 to 100 nM | 100 to 1000 nM | – | – |
| C=CC(=O)N(C)C[C@H](NC(=O)OC1CCCC1)C(=O)N1C[C@H](OC(=O)N2Cc3cccc(F)c3C2)C[C@H]1C(=O)N[C@]1(C(=O)NS(=O)(=O)C2CC2)C[C@H]1C=C [Compound I-20, (3R,5S)-1-((S)-2-(cyclopentyloxycarbonylamino)-3-(N-methylacrylamido)propanoyl)-5-((1R,2S)-1-(cyclopropylsulfonylcarbamoyl)-2-vinylcyclopropylcarbamoyl)pyrrolidin-3-yl 4-fluoroisoindoline-2-carboxylate] | 10 to 100 nM | < 10 nM | < 10 nM | measurable covalent modification | 10 to 100 nM | 100 to 1000 nM | – | – |
| C=C[C@@H]1C[C@]1(NC(=O)[C@@H]1C[C@@H](OC(=O)N2Cc3cccc(F)c3C2)CN1C(=O)[C@@H](NC(=O)OC(C)(C)C)[C@@H](C)OC(=O)/C=C/C)C(=O)NS(=O)(=O)C1CC1 [Compound I-22, (3R,5S)-1-((2S,3R)-3-((E)-but-2-enoyloxy)-2-(tert-butoxycarbonylamino)butanoyl)-5-((1R,2S)-1-(cyclopropylsulfonylcarbamoyl)-2-vinylcyclopropylcarbamoyl)pyrrolidin-3-yl-4-fluoroisoindoline-2-carboxylate] | 100 to 1000 nM | 10 to 100 nM | < 10 nM | measurable covalent modification | 10 to 100 nM | 10 to 100 nM | 10 to 100 nM | – |
| C=C[C@@H]1C[C@]1(NC(=O)[C@@H]1C[C@@H](OC(=O)N2Cc3cccc(F)c3C2)CN1C(=O)[C@H](COC(=O)C(=C)NC(=O)OC(C)(C)C)NC(=O)OC(C)(C)C)C(=O)NS(=O)(=O)C1CC1 [Compound I-23, (3R,5S)-1-((S)-2-(tert-butoxycarbonylamino)-3-(2-(tert-butoxycarbonylamino)acryloyloxy)propanoyl)-5-((1R,2S)-1-(cyclopropylsulfonylcarbamoyl)-2-vinylcyclopropylcarbamoyl)pyrrolidin-3-yl 4-fluoroisoindoline-2-carboxylate] | < 10 nM | < 10 nM | < 10 nM | measurable covalent modification | 10 to 100 nM | 100 to 1000 nM | – | – |
| C=C[C@@H]1C[C@]1(NC(=O)[C@@H]1C[C@@H](OC(=O)N2Cc3cccc(F)c3C2)CN1C(=O)[C@H](CCC(=O)C=C(C)C)NC(=O)OC(C)(C)C)C(=O)NS(=O)(=O)C1CC1 [Compound I-25, (3R,5S)-1-((S)-2-(tert-butoxycarbonylamino)-7-methyl-5-oxooct-6-enoyl)-5-((1R,2S)-4-(cyclopropylsulfonylcarbamoyl)-2-vinylcyclopropylcarbamoyl)pyrrolidin-3-yl 4-fluoroisoindoline-2-carboxylate] | 100 to 1000 nM | 10 to 100 nM | < 10 nM | conversion to a new peak | < 10 nM | 10 to 100 nM | 10 to 100 nM | 773 Da |
| C=C[C@@H]1C[C@]1(NC(=O)[C@@H]1CC(OC(=O)N2Cc3cccc(F)c3C2)CN1C(=O)[C@H](CCC(=O)C(=C)C)NC(=O)OC(C)(C)C)C(=O)NS(=O)(=O)C1CC1 (stereo partly drawn) [Compound I-27] | < 10 nM | < 10 nM | < 10 nM | measurable covalent modification | 10 to 100 nM | 100 to 1000 nM | – | – |
